Experimental data reported in US10981864B2, “Crystalline modifications of N-(4,5-bismethanesulfonyl-2-methylbenzoyl)guanidine hydrochloride and N-(4,5-bismethanesulfonyl-2-methylbenzoyl)guanidine salts” (MERCK PATENT GMBH, priority 2016, dated 2021).
Several values for one entry are separate records, joined by “and”; a condition that tells them apart may be missing. Equal entries are not always repeated.

How the values were obtained:
human PASMCs = conditions: in vitro; cited from earlier work
SuHx rats = conditions: in vivo; cited from earlier work
[1] = Mini-dissolution in FeSSIF medium (pH 5.0), dissolved quantity by HPLC; assay type: physicochemical; conditions: for Dissolution levels in FeSSIF pH 5.0: FeSSIF pH 5.0, 37° C.; for Dissolution behavior compared to prior-art form HCl-H1: biorelevant media, Fed-state conditions (FeSSIF, pH 5.0)
Method: Approximately 10-12 mg of N-(4,5-bis-methanesulfonyl-2-methyl-benzoyl)guanidine form HCl-H1 (HCl salt hydrate form, prior-art), HCl salt anhydrous forms (forms HCl-A1, HCl-A2, HCl-A3), and novel salt forms [phosphate salt (form Phosphate-NF1), maleate salt (form Maleate-NF2), oxalate salt (form Oxalate-NF1), citrate salt (form citrate-NF1), sulfate salt (form Sulfate-NF3), succinate salt (form Succinate-NF1), malonate salt (form Malonate-NF1), besylate salt (form Besylate-NF1), p-tosylate salt (form Tosylate-NF1), malate salt (form Malate-NF1), fumarate salt (form Fumarate-NF1), tartrate salt (form Tartrate-NF1)] are weighed into 4 mL glass vials, and dispersed in 4 mL FeSSIF medium (pH 5.0, Acetate buffer capacity increased by factor 4 to ensure stable pH conditions over course of dissolution experiments).
All dispersions are agitated at 37° C. for up to 2 hours. At defined time intervals (5 min, 15 min, 60 min, 120 min), 0.4 mL sample aliquots of homogeneous dispersions are withdrawn by a syringe, and filtrated via syringe filter adapters (PTFE, 0.2 μm). Clear filtrates are diluted (1:20) with respective Acetate blank buffer, and diluted samples analyzed by HPLC for dissolved quantities of N-(4,5-bis-methanesulfonyl-2-methyl-benzoyl)-guanidine.

[2] = Thermal behaviour (DSC/TGA), thermal stability; assay type: physicochemical; conditions: for Thermal stability (mp/dec): DSC/TGA 5 K/min
Method: As used herein, unless stated otherwise, the DSC measurements are carried out using a Mettler-Toledo DSC 821 with a heating rate of 5 K/min, using nitrogen purge gas at 50 mL/min.
As used herein, unless stated otherwise, the TGA measurements are carried out using a Mettler-Toledo TGA 851 with a heating rate of 5 K/min, using nitrogen purge gas at 50 mL/min.

[3] = Water Vapour Sorption isotherm (DVS), hygroscopicity acc. to Ph. Eur.; assay type: physicochemical; conditions: for Water uptake levels (Water Vapour Sorption): 25° C.
Method: As used herein, unless stated otherwise, Water Vapour Sorption isotherm measurements are carried out on a DVS-1 or a DVS-Intrinsic system from SMS.
A second endothermic event occurs at >180° C., which is due to melting of the dehydrated form. This is followed by immediate re-crystallisation (exothermic event), and subsequent melting of the re-crystallized phase at >240° C. […] DSC scan of form HCl-H1 was acquired on a Mettler-Toledo DSC 821 with a heating rate of 5 K/min, using nitrogen purge gas at 50 mL/min. […] Form HCl-H1 can be classified as non-hygroscopic acc. to Ph. Eur. criteria (section 5.11.). […] Water Vapour Sorption isotherm was acquired on a DVS-1 system from SMS. • Dissolution level of form HCl-H1 in Fed-State Simulated Intestinal Fluid [FeSSIF, pH 5.0] at 37° C. was determined to be approx. 1.50 mg/mL (after 15 min), approx. 4.16 mg/mL (after 60 min), and approx. 4.54 mg/mL (after 120 min), respectively (see example 17).

[4] = target: sodium-hydrogen antiporter 1 (NHE-1) (Homo sapiens, UniProt P19634); conditions: cited from earlier work
sodium-hydrogen antiporter 1 (NHE-1), sequence (P19634 whole entry, species assumed): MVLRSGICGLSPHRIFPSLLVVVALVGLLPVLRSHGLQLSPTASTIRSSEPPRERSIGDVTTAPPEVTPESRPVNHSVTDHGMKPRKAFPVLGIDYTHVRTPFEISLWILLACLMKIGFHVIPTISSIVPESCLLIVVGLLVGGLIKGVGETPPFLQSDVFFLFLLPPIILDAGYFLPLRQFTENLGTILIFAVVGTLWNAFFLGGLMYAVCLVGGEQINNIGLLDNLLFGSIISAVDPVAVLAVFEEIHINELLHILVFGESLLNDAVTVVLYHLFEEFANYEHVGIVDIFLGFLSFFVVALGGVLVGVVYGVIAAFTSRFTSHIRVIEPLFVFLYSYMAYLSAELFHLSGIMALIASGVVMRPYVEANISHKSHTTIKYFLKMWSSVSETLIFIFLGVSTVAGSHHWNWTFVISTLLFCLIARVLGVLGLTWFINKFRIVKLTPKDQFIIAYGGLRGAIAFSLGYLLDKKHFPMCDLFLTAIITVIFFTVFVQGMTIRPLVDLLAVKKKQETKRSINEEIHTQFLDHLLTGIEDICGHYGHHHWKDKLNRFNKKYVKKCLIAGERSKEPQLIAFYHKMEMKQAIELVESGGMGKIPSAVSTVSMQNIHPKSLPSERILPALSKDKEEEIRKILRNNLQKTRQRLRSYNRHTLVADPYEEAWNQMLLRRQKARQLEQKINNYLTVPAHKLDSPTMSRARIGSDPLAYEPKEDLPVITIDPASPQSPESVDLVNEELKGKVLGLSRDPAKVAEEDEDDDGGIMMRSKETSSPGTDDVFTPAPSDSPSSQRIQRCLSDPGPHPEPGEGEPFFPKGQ

[5] = test system: animal models of DMD and dilated cardiomyopathy; conditions: cited from earlier work
[6] = test system: monocrotaline-treated rats; conditions: in vivo; cited from earlier work
[7] = relative humidity range 0-80% rh

Row | Structure (SMILES) | Proliferation and migration of human PASMCs (human PASMCs) | Dissolution levels in FeSSIF pH 5.0 ([1]; 5 min) [mg/mL] | Dissolution levels in FeSSIF pH 5.0 ([1]; 15 min) | Dissolution levels in FeSSIF pH 5.0 ([1]; 60 min) | Dissolution levels in FeSSIF pH 5.0 ([1]; 120 min) | Dissolution behavior compared to prior-art form HCl-H1 [1] | Thermal stability (mp/dec) [2] [°C] | Hygroscopicity classification acc. to Ph. Eur. criteria (section 5.11.) [3] | Water uptake levels (Water Vapour Sorption) [3, 7] [wt %] | further results
1 | N=C(N)NC(=O)c1nc(Cl)c(N)nc1N [Amiloride] | inhibit proliferation and migration |  |  |  |  |  |  |  |  | 
2 | CCN(c1nc(N)c(C(=O)NC(=N)N)nc1Cl)C(C)C [EIPA] | inhibit proliferation and migration |  |  |  |  |  |  |  |  | Proliferation and migration (SuHx rats): inhibit proliferation and migration
3 | Cc1cc(S(C)(=O)=O)c(S(C)(=O)=O)cc1C(=O)NC(=N)N [Phosphate-NF1, N-(4,5-bis-methanesulfonyl-2-methyl-benzoyl)-guanidine] |  | 3.373 | 5.92±0.02 mg/mL and 5.919 mg/mL | 6.35±0.02 mg/mL and 6.345 mg/mL | 6.35±0.02 mg/mL and 6.345 mg/mL | improved dissolution behavior | > 230 | slightly hygroscopic |  | Water uptake levels (Water Vapour Sorption) ([3]; relative humidity range 0-90% rh): ≤ 1.0 wt %; Tendency to undergo hydrate formation ([3]; upon exposure to elevated RH levels): no tendency to undergo hydrate formation
4 | Cc1cc(S(C)(=O)=O)c(S(C)(=O)=O)cc1C(=O)N=C(N)N [Rimeporide, N-(4,5-bismethanesulfonyl-2-methylbenzoyl)guanidine] |  |  |  |  |  |  |  |  |  | Inhibition of NHE-1 [4]: potent and selective inhibitor; Cardioprotective action ([5]; animal models of DMD and dilated cardiomyopathy): good cardioprotective action; Long term accumulation of inflammation and fibrosis ([5]; animal models of DMD, skeletal muscles, the heart and the diaphragm): prevent against the long term accumulation of inflammation and fibrosis
5 | N=C(N)NC(=O)c1ccc(N2CCN(C(=O)c3ccc[nH]3)CC2)c(C(F)(F)F)c1 [Sabiporide] | inhibit proliferation and migration |  |  |  |  |  |  |  |  | 
6 | Cc1cc(S(C)(=O)=O)c(S(C)(=O)=O)cc1C(=O)NC(=N)N [Succinate-NF1, N-(4,5-bis-methanesulfonyl-2-methyl-benzoyl)-guanidine] |  | 1.105 | 3.26±0.02 mg/mL and 3.260 mg/mL | 5.10±0.02 mg/mL and 5.104 mg/mL | 5.03±0.02 mg/mL and 5.032 mg/mL | improved dissolution behavior | > 200 | non-hygroscopic | ≤ 0.2 | 
7 | Cc1cc(S(C)(=O)=O)c(S(C)(=O)=O)cc1C(=O)NC(=N)N [Sulfate-NF3, N-(4,5-bis-methanesulfonyl-2-methyl-benzoyl)-guanidine] |  | 2.590 | 3.70±0.02 mg/mL and 3.703 mg/mL | 4.65±0.02 mg/mL and 4.646 mg/mL | 4.70±0.02 mg/mL and 4.705 mg/mL | improved dissolution behavior | > 210 | slightly hygroscopic | ≤ 0.5 | 
8 | Cc1cc(S(C)(=O)=O)c(S(C)(=O)=O)cc1C(=O)NC(=N)N [Tosylate-NF1, N-(4,5-bis-methanesulfonyl-2-methyl-benzoyl)-guanidine] |  | 1.961 | 4.85±0.02 mg/mL and 4.850 mg/mL | 5.28±0.02 mg/mL and 5.285 mg/mL | 2.86±0.02 mg/mL and 2.859 mg/mL | improved dissolution behavior |  | slightly hygroscopic | 1.0 | Thermally stable up to [2]: ~180 °C
9 | CC(C)c1ccc(C(=O)NC(=N)N)cc1S(C)(=O)=O [cariporide] |  |  |  |  |  |  |  |  |  | Development of right heart failure [6]: attenuate the development of right heart failure
